Converted amounts (≈) assume the structure as drawn. Where only a bound is given, the exact number is not on record here.

Series [1] can be described thus: Selectivity index, ratio of CC50 for African green monkey Vero cells to MIC for Mycobacterium tuberculosis H37Rv. To be noted: read-out: Selectivity Index. It is filed as toxicity.
In the next series the test system is Escherichia coli. Kind of series: Antibacterial activity against Escherichia coli. The format is functional.
Series [2] deals with Staphylococcus aureus. Kind of series: Antibacterial activity against methicillin-resistant Staphylococcus aureus. It is filed as functional.
Another series relates to Enterobacter cloacae. Briefly: Antibacterial activity against Enterobacter cloacae. The format is functional.
Series [3] is described as follows: AUC (0 to infinity) in ICR mouse at 25 mg/kg, po. The settings on record: in vivo. It is filed as ADME, organism-based. Also noted: dose 25 mg/kg, time infinity, route oral.
The test system of another series is Citrobacter freundii. Briefly: Antibacterial activity against Citrobacter freundii. The format is functional.
The test system of the next series is Proteus mirabilis. Briefly: Antibacterial activity against Proteus mirabilis. It is filed as functional.
The subject of series [4] is Staphylococcus aureus. Briefly: Antibacterial activity against methicillin-sensitive Staphylococcus aureus. The format is functional.
In another series the test system is Klebsiella pneumoniae. Kind of series: Antibacterial activity against Klebsiella pneumoniae. It is filed as functional.
A further series has as its system Klebsiella aerogenes. Briefly: Antibacterial activity against Enterobacter aerogenes. It is filed as functional.
The test system of series [5] is Acinetobacter calcoaceticus. Kind of series: Antibacterial activity against Acinetobacter calcoaceticus. It is filed as functional.
Series [6] is described as follows: Metabolic stability in mouse assessed as half life. The format is ADME.
The nature of series [7]: Cmax in ICR mouse at 25 mg/kg, po. The format is ADME, organism-based. Also noted: dose 25 mg/kg, route oral. The settings on record: in vivo.
The subject of series [8] is Mycobacterium tuberculosis. Briefly: Antitubercular activity against Mycobacterium tuberculosis H37Rv. It is filed as functional.
In a further series the test system is Enterococcus faecium. Briefly: Antibacterial activity against Enterococcus faecium. The format is functional.
Series [9] is described as follows: (§1) Cytotoxicity against African green monkey Vero cells assessed as reduction in cell viability after 72 hrs by MTT assay. It is filed as cell-based. The settings on record: chlorocebus sabaeus, Vero cells.
Series [10] has as its system Staphylococcus epidermidis. Kind of series: Antibacterial activity against methicillin-resistant Staphylococcus epidermidis. The format is functional.
A short description of series [11]: Tmax in ICR mouse at 25 mg/kg, po. The settings on record: in vivo. The format is ADME, organism-based.
In another series the test system is Pseudomonas aeruginosa. Briefly: Antibacterial activity against Pseudomonas aeruginosa ATCC 27853. The format is functional.
A further series concerns Enterococcus faecalis. Briefly: Antibacterial activity against Enterococcus faecalis. The format is functional.
A short description of series [12]: Half life in ICR mouse at 25 mg/kg, po. The settings on record: in vivo. The format is ADME, organism-based.
In series [13] the test system is Staphylococcus epidermidis. Kind of series: Antibacterial activity against methicillin-sensitive Staphylococcus epidermidis. It is filed as functional.
A further series deals with Vero. Described as §1. It is filed as cell-based. The settings on record: chlorocebus sabaeus, vero, 72 h.

For the molecule `CCOC(=O)c1c(-c2ccc(OC)cc2)oc2ccc(OCCCCN3C(=O)/C(=N\OC)c4ccccc43)cc12`, in series [1], the selectivity ratio is over 2000. Further, the MIC90 worked out at 0.5 µg/mL (≈ 0.922 µM) with Escherichia coli; 1 µg/mL (≈ 1.84 µM) against Staphylococcus aureus [2]; 0.25 µg/mL (≈ 0.461 µM) against Enterobacter cloacae; 0.25 µg/mL (≈ 0.461 µM) with Citrobacter freundii; 0.125 µg/mL (≈ 0.23 µM) in the series with Proteus mirabilis; 1 µg/mL (≈ 1.84 µM) against Staphylococcus aureus [4]. Besides, the MIC90 in the series with Klebsiella pneumoniae was 0.25 µg/mL (≈ 0.461 µM); in the series on Klebsiella aerogenes, 0.06 µg/mL (≈ 0.111 µM); in series [5], 1 µg/mL (≈ 1.84 µM); in the series with Enterococcus faecium, 8 µg/mL (≈ 14.7 µM); in [10] it was 0.5 µg/mL (≈ 0.922 µM); with Pseudomonas aeruginosa, 4 µg/mL (≈ 7.37 µM). Further, the values for the MIC90 (against Enterococcus faecalis; in [13]) were 1 µg/mL (≈ 1.84 µM) and 0.125 µg/mL (≈ 0.23 µM), respectively. Further, the AUC(0-inf) in series [3] amounted to 3020 ng·h/mL. Moreover, the half-life in [6] is 0.32 h; in series [12], 3.33 h. In series [7], the highest level (Cmax) was 927 ng/mL. In [8], the MIC was under 0.016 µg/mL. Also, in [9], the CC50 at 72 h came to 32 µg/mL (≈ 59 µM). The Tmax in series [11] is 1.65 h.
With `O=C(O)c1cn(C2CC2)c2cc(N3CCNCC3)c(F)cc2c1=O` [CIPROFLOXACIN], the MIC90 was 0.06 µg/mL (≈ 0.181 µM) against Escherichia coli; 0.25 µg/mL (≈ 0.754 µM) against Staphylococcus aureus [2]; 0.03 µg/mL (≈ 0.0905 µM) against Citrobacter freundii; at most 0.03 µg/mL in the series on Proteus mirabilis; 0.25 µg/mL (≈ 0.754 µM) with Staphylococcus aureus [4]; 0.5 µg/mL (≈ 1.51 µM) against Klebsiella pneumoniae. Also, the MIC90 is 0.06 µg/mL (≈ 0.181 µM) against Klebsiella aerogenes; 0.5 µg/mL (≈ 1.51 µM) in series [5]; 8 µg/mL (≈ 24.1 µM) against Enterococcus faecium; 4 µg/mL (≈ 12.1 µM) in [10]; 0.25 µg/mL (≈ 0.754 µM) in the series on Pseudomonas aeruginosa; 0.5 µg/mL (≈ 1.51 µM) in the series with Enterococcus faecalis. This molecule also displayed an MIC90 in series [13] of 0.125 µg/mL (≈ 0.377 µM). Also, in series [3], the AUC(0-inf) is 17800 ng·h/mL. Besides, the concentration in series [7] peaked (Cmax) at 3130 ng/mL. This molecule also gave an MIC in series [8] of 0.291 µg/mL (≈ 0.878 µM). Besides, the CC50 at 72 h in [9] worked out at 512 µg/mL (≈ 1550 µM). The Tmax in [11] amounted to 1.8 h.
Take `CCO/N=C1\C(=O)N(CCCCOc2ccc3oc(-c4ccc(OC)cc4)c(C(=O)OCC)c3c2)c2ccc(F)cc21`: in [1], the selectivity ratio amounted to 410. Besides, the MIC90 is 0.5 µg/mL (≈ 0.87 µM) with Escherichia coli; 4 µg/mL (≈ 6.96 µM) in the series with Staphylococcus aureus [2]; 0.25 µg/mL (≈ 0.435 µM) with Enterobacter cloacae; 0.5 µg/mL (≈ 0.87 µM) with Citrobacter freundii; 0.25 µg/mL (≈ 0.435 µM) against Proteus mirabilis; 8 µg/mL (≈ 13.9 µM) with Staphylococcus aureus [4]. In addition, the MIC90 is 2 µg/mL (≈ 3.48 µM) with Klebsiella pneumoniae; 0.5 µg/mL (≈ 0.87 µM) against Klebsiella aerogenes; 8 µg/mL (≈ 13.9 µM) in series [5]; 32 µg/mL (≈ 55.7 µM) with Enterococcus faecium; 16 µg/mL (≈ 27.8 µM) in series [10]; 8 µg/mL (≈ 13.9 µM) against Pseudomonas aeruginosa. Further, the results for the MIC90 (in the series with Enterococcus faecalis; in series [13]) were 4 µg/mL (≈ 6.96 µM) and 1 µg/mL (≈ 1.74 µM), respectively. In series [8], this molecule registered a minimum inhibitory concentration (MIC) of 0.156 µg/mL (≈ 0.271 µM). Besides, in the series on Vero, the CC50 amounted to 32 µg/mL (≈ 55.7 µM).
As for `CCOC(=O)c1c(-c2ccccc2)oc2ccc(OCCCCN3C(=O)/C(=N\OC)c4cc(F)ccc43)cc12`, the selectivity ratio in [1] came to 516. The MIC90 was 0.125 µg/mL (≈ 0.236 µM) with Escherichia coli; 2 µg/mL (≈ 3.77 µM) against Staphylococcus aureus [2]; 1 µg/mL (≈ 1.88 µM) against Enterobacter cloacae; 0.25 µg/mL (≈ 0.471 µM) in the series with Citrobacter freundii; 0.25 µg/mL (≈ 0.471 µM) against Proteus mirabilis; 1 µg/mL (≈ 1.88 µM) against Staphylococcus aureus [4]. In addition, the MIC90 with Klebsiella pneumoniae was 0.25 µg/mL (≈ 0.471 µM); against Klebsiella aerogenes, 0.125 µg/mL (≈ 0.236 µM); in [5], 1 µg/mL (≈ 1.88 µM); with Enterococcus faecium, 8 µg/mL (≈ 15.1 µM); in [10], 1 µg/mL (≈ 1.88 µM); in the series on Pseudomonas aeruginosa, 0.5 µg/mL (≈ 0.942 µM). Besides, the figures for the MIC90 (in the series with Enterococcus faecalis; in [13]) were 2 µg/mL (≈ 3.77 µM) and 0.25 µg/mL (≈ 0.471 µM), respectively. Further, the MIC in [8] was found to be 0.062 µg/mL (≈ 0.117 µM). Moreover, the CC50 with Vero was found to be 64 µg/mL (≈ 121 µM).
With `CNC(=O)c1c(-c2ccc(O)cc2)oc2ccc(O)c(CN3CCCCC3)c12`, the selectivity ratio in series [1] is over 64000. In [3], this molecule displayed a total exposure AUC(0-inf) of 39300 ng·h/mL. The half-life in series [6] was over 1 h; in series [12], 9.88 h. Moreover, the Cmax in series [7] was found to be 5060 ng/mL. Moreover, the MIC in series [8] was under 0.016 µg/mL. For the same molecule, in [9], the CC50 at 72 h was over 1020 µg/mL. Besides, in series [11], the time of peak concentration (Tmax) stood at 3.46 h.

The record behind these values is ChEMBL document CHEMBL4400520, “Benzofuran-isatin-imine hybrids tethered via different length alkyl linkers: Design, synthesis and in vitro evaluation of anti-tubercular and anti-bacterial activities as well as cytotoxicity” (Eur J Med Chem, 2019).
